According to paper PMC4492758 (Pharmacology Research & Perspectives, 2015):
Values joined by “and” are separate entries in the source; they are usually repeats but may differ in a detail not shown here. Equal values may be shown once. “Also recorded” adds a separate entry of the source. Where a name gives a salt, the structure may show the parent alone. Read-outs that look alike come from different tables or passages of the source. Marks after values point to notes of the source that are not given here.

Experiments:
Human adrenergic β3 = Human adrenergic β3 (Homo sapiens, UniProt P13945); assay: Off-target radioligand binding assay; conditions: read-out: Percentage inhibition at 1 μmol/L
Chain of Human adrenergic β3 (P13945 whole entry): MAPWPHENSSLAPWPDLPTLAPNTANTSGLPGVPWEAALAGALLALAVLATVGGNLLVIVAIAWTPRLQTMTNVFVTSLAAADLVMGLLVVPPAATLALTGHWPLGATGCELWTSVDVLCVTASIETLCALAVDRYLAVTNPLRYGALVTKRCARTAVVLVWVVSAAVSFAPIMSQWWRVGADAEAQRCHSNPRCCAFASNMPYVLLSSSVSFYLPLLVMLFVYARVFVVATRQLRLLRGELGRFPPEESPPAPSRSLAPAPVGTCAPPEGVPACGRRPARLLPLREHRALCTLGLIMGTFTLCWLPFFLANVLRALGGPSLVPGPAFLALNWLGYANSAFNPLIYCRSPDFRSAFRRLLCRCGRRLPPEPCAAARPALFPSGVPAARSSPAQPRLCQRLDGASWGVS

Human opiate κ = Human opiate κ (Homo sapiens, UniProt P41145); assay: Off-target radioligand binding assay; conditions: read-out: Percentage inhibition at 1 μmol/L
[1] = tested on: sham-operated and olfactory bulbectomized rats; assay: Olfactory bulbectomy model, open-field test; format: in vivo, rat
Human dopamine D1 = Human dopamine D1 (Homo sapiens, UniProt P21728); assay: Off-target radioligand binding assay; conditions: read-out: Percentage inhibition at 1 μmol/L
Human serotonin 5-HT2A = Human serotonin 5-HT2A (Homo sapiens, UniProt P28223); assay: Off-target radioligand binding assay; conditions: read-out: Percentage inhibition at 1 μmol/L
Chain of Human serotonin 5-HT2A (P28223 whole entry): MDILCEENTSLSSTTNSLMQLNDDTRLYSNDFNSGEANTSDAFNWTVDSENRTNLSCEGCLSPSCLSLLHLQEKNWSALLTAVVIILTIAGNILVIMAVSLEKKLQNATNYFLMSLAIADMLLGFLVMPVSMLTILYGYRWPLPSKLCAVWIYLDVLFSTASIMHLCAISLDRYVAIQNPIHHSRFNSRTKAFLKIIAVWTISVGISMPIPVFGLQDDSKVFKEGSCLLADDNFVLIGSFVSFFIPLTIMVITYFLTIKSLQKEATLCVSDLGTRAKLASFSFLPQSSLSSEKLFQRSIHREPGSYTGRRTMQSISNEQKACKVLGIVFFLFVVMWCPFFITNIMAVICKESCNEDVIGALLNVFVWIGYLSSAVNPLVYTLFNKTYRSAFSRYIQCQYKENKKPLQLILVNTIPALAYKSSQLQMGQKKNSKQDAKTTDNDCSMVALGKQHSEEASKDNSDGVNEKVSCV

Human serotonin 5-HT1B = Human serotonin 5-HT1B (Homo sapiens, UniProt P28222); assay: Off-target radioligand binding assay; conditions: read-out: Percentage inhibition at 1 μmol/L
Chain of Human serotonin 5-HT1B (P28222 whole entry): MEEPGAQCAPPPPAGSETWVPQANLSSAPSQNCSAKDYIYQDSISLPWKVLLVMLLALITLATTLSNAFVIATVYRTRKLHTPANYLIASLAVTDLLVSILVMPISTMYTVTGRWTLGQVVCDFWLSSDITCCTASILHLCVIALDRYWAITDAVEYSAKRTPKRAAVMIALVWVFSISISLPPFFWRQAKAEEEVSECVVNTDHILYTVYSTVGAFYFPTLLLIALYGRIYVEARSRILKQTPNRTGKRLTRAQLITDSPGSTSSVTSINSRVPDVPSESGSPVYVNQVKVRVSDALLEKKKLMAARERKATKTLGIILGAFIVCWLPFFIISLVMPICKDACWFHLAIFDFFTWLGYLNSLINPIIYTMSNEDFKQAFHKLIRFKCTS

Human serotonin 5-HT5A = Human serotonin 5-HT5A (Homo sapiens, UniProt P47898); assay: Off-target radioligand binding assay; conditions: read-out: Percentage inhibition at 1 μmol/L
[2] = molecular target: human monoamine oxidase-A (Homo sapiens, UniProt P21397); assay: Off-target enzyme assay, 14C-labeled substrate; format: biochemical; conditions: read-out: percent inhibition
Suncus murinus [3] = assay: Evaluation of emesis in Suncus murinus, experiment 1; format: in vivo; conditions: for Number of animals vomited/tested: single dose, 60 min observation; for Total emetic episode: 1 h observation, animals that vomited
Human dopamine D2L = Human dopamine D2L (Homo sapiens, UniProt P14416); assay: Off-target radioligand binding assay; conditions: read-out: Percentage inhibition at 1 μmol/L
Human serotonin 5-HT7 = Human serotonin 5-HT7 (Homo sapiens, UniProt P34969); assay: Off-target radioligand binding assay
Chain of Human serotonin 5-HT7 (P34969 whole entry): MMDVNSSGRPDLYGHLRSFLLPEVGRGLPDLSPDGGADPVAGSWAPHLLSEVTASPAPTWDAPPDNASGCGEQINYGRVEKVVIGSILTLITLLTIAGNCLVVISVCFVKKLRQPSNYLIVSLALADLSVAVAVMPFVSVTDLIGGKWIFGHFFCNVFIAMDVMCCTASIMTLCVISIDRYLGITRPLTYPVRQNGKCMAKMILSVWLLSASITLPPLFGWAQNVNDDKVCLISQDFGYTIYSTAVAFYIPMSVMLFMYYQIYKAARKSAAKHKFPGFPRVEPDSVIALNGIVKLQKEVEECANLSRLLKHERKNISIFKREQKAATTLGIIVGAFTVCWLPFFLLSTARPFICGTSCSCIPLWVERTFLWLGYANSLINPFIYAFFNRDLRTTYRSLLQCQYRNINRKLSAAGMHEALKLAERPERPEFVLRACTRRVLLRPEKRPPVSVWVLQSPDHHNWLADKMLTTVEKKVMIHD

Human opiate μ = Human opiate μ (Homo sapiens, UniProt P35372); assay: Off-target radioligand binding assay; conditions: read-out: Percentage inhibition at 1 μmol/L
Human serotonin 5-HT3 = Human serotonin 5-HT3 (Homo sapiens, UniProt P46098); assay: Off-target radioligand binding assay; conditions: read-out: Percentage inhibition at 1 μmol/L
Human adrenergic α2B = Human adrenergic α2B (Homo sapiens, UniProt P18089); assay: Off-target radioligand binding assay; conditions: read-out: Percentage inhibition at 1 μmol/L
Human dopamine D3 = Human dopamine D3 (Homo sapiens, UniProt P35462); assay: Off-target radioligand binding assay
Chain of Human dopamine D3 (P35462 whole entry): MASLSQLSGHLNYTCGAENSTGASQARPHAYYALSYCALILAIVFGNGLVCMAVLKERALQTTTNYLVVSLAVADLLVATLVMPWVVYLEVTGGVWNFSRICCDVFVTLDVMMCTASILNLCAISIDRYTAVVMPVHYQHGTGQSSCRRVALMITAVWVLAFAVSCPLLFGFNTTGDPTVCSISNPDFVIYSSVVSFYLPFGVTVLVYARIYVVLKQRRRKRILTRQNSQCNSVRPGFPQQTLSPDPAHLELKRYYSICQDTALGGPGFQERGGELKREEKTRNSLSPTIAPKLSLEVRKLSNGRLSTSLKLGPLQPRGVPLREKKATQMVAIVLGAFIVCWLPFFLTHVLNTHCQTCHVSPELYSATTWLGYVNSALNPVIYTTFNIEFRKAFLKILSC

[4] = molecular target: guinea pig serotonin 5-HT4 (Cavia porcellus, UniProt O70528); assay: Off-target radioligand binding assay; conditions: read-out: Percentage inhibition at 1 μmol/L
Human adrenergic α1B = Human adrenergic α1B (Homo sapiens, UniProt P35368); assay: Off-target radioligand binding assay; conditions: read-out: Percentage inhibition at 1 μmol/L
Human adrenergic β1 = Human adrenergic β1 (Homo sapiens, UniProt P08588); assay: Off-target radioligand binding assay; conditions: read-out: Percentage inhibition at 1 μmol/L
[5] = Pharmacokinetics of DSP-1053 in male rats; format: in vivo; conditions: Crl:CD(SD), rat, plasma
Human adrenergic α2A = Human adrenergic α2A (Homo sapiens, UniProt P08913); assay: Off-target radioligand binding assay; conditions: read-out: Percentage inhibition at 1 μmol/L
Human histamine H2 = Human histamine H2 (Homo sapiens, UniProt P25021); assay: Off-target radioligand binding assay; conditions: read-out: Percentage inhibition at 1 μmol/L
Chain of Human histamine H2 (P25021 whole entry): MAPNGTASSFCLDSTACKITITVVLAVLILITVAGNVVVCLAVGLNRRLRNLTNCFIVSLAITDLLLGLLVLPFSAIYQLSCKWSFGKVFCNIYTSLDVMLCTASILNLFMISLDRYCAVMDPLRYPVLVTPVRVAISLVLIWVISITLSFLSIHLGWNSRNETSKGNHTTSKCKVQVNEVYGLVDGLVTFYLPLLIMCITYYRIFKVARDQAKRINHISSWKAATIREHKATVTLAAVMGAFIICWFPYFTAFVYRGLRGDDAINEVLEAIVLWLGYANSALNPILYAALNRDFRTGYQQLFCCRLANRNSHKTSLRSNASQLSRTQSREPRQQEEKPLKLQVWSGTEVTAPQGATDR

[6] = molecular target: human monoamine oxidase -B (Homo sapiens, UniProt P27338); assay: Off-target enzyme assay, 14C-labeled substrate; format: biochemical; conditions: read-out: percent inhibition
rats [7] = assay: Conditioned taste aversion test in rats; conditions: 100 mg kg^−1; Day 4, 24 h after administration, vs vehicle
[8] = tested on: extracellular 5-HT levels in the rat frontal cortex; assay: Rat microdialysis, extracellular 5-HT; format: in vivo; conditions: for maximum increase of 5-HT extracellular levels, % of baseline value: 100 min after administration, mean ± SEM
Human adrenergic α2C = Human adrenergic α2C (Homo sapiens, UniProt P18825); assay: Off-target radioligand binding assay; conditions: read-out: Percentage inhibition at 1 μmol/L
Human serotonin 5-HT2C = Human serotonin 5-HT2C (Homo sapiens, UniProt P28335); assay: Off-target radioligand binding assay; conditions: read-out: Percentage inhibition at 1 μmol/L
Chain of Human serotonin 5-HT2C (P28335 33-458): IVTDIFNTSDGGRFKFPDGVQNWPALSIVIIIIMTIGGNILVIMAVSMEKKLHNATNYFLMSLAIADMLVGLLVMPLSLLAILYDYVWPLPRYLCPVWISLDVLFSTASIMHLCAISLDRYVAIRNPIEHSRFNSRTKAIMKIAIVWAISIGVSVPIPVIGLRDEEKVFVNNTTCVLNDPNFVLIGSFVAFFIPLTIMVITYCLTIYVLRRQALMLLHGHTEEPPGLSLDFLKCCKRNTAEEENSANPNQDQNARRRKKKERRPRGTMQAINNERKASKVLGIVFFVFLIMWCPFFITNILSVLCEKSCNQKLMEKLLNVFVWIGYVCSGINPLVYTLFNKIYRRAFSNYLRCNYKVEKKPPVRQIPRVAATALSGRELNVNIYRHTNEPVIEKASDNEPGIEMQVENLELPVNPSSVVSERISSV

Human adrenergic α1A = Human adrenergic α1A (Homo sapiens, UniProt P35348); assay: Off-target radioligand binding assay
Chain of Human adrenergic α1A (P35348 whole entry): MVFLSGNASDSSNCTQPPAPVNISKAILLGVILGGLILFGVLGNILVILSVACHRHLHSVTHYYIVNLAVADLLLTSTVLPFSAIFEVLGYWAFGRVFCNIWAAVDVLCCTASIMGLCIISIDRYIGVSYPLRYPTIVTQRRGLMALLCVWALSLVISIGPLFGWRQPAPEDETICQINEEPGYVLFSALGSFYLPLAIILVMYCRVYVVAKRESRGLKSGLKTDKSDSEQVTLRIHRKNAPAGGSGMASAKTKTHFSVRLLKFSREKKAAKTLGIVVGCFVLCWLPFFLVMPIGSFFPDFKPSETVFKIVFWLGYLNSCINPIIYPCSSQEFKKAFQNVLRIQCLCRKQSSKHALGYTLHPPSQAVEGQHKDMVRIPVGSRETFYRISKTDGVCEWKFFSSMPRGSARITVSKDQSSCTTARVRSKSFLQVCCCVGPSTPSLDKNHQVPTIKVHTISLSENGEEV

Human adrenergic β2 = Human adrenergic β2 (Homo sapiens, UniProt P07550); assay: Off-target radioligand binding assay; conditions: read-out: Percentage inhibition at 1 μmol/L
[9] = molecular target: pig catechol-O-methyltransferase (Sus scrofa, UniProt Q99028); format: biochemical; conditions: read-out: percent inhibition
Human histamine H1 = Human histamine H1 (Homo sapiens, UniProt P35367); assay: Off-target radioligand binding assay
Chain of Human histamine H1 (P35367 whole entry): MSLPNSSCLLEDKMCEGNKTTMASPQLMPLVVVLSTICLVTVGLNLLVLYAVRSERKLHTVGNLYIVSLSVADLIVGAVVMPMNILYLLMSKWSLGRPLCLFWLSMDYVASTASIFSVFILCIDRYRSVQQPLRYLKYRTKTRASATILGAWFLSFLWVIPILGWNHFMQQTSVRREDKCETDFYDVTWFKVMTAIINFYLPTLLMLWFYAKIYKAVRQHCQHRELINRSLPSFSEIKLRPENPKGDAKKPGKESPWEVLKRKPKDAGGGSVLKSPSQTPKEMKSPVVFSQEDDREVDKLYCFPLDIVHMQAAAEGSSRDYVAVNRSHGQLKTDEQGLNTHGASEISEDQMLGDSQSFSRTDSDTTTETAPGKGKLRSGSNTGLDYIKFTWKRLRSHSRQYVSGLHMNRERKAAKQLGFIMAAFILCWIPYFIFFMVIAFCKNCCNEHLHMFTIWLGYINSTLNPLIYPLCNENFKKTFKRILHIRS

Suncus murinus [10] = conditions: 60 mg kg^−1 po, 19 animals per group
[11] = tested on: sham-operated and olfactory bulbectomized rats; assay: Olfactory bulbectomy model, emotional scoring; format: in vivo, rat
Human musucarinic M1 = Human musucarinic M1 (Homo sapiens, UniProt P11229); assay: Off-target radioligand binding assay; conditions: read-out: Percentage inhibition at 1 μmol/L
Chain of Human musucarinic M1 (P11229 whole entry): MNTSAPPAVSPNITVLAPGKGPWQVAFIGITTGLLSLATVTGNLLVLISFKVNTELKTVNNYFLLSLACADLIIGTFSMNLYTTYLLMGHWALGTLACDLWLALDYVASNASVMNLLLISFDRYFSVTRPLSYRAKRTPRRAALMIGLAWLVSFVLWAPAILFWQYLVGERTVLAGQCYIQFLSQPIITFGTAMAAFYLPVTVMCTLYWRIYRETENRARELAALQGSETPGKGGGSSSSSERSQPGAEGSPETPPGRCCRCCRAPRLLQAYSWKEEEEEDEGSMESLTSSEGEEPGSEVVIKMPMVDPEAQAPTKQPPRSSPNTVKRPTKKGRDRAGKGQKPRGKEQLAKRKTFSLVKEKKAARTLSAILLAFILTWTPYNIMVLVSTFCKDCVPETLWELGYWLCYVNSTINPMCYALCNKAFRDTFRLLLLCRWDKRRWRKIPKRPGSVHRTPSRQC

rats [12] = assay: Rat forced swimming test; format: in vivo; conditions: vs vehicle
Rat GABAA = assay: Off-target radioligand binding assay; conditions: [3H] Flunitrazepam 0.88 nmol/L
[13] = tested on: dopamine extracellular levels in the rat frontal cortex; assay: Rat microdialysis, extracellular dopamine; format: in vivo; conditions: any dose (1, 3, 10 mg kg^−1 p.o.)
Human musucarinic M2 = Human musucarinic M2 (Homo sapiens, UniProt P08172); assay: Off-target radioligand binding assay; conditions: read-out: Percentage inhibition at 1 μmol/L
Human serotonin 5-HT6 = Human serotonin 5-HT6 (Homo sapiens, UniProt P50406); assay: Off-target radioligand binding assay; conditions: read-out: Percentage inhibition at 1 μmol/L
Human serotonin 5-HT2B = Human serotonin 5-HT2B (Homo sapiens, UniProt P41595); assay: Off-target radioligand binding assay
Chain of Human serotonin 5-HT2B (P41595 whole entry): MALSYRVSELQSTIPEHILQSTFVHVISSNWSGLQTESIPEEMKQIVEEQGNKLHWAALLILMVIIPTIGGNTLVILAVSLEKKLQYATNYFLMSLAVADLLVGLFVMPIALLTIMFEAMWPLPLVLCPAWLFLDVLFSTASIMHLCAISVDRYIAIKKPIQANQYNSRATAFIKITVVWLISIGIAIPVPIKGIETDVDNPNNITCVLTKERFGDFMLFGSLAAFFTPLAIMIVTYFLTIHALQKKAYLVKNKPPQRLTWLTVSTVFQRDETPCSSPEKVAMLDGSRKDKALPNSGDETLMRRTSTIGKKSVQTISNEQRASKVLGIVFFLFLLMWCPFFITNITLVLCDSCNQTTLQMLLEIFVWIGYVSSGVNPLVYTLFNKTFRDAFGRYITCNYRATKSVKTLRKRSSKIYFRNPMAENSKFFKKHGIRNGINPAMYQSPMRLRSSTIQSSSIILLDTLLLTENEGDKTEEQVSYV

[14] = molecular target: rat serotonin transporter (Rattus norvegicus, UniProt P31652); assay: Rat SERT binding, [3H]citalopram, rat cerebral cortex membranes
Human opiate δ = Human opiate δ (Homo sapiens, UniProt P41143); assay: Off-target radioligand binding assay; conditions: read-out: Percentage inhibition at 1 μmol/L
Suncus murinus [15] = conditions: ref Mine et al. [2013], cited from earlier work; for Number of animals vomited/tested: single dose
human 5-HT1A receptor = human 5-HT1A receptor (Homo sapiens, UniProt P08908); assay: biochemical; conditions: read-out: I.A. (intrinsic activity), GTPγS binding
[16] = olfactory bulbectomized animals, 0.3, 1 and 3 mg/kg, 1- and 2-week administration
[17] = sham-operated animals, 0.3, 1 and 3 mg/kg, 1- and 2-week administration
[18] = read-out: Percentage inhibition at 1 μmol/L
[19] = 1-week administration, vs vehicle
[20] = sham-operated animals, 2-week administration

Question: Which results are given for COCCOc1cc(CC2CCN(CCc3ccc4c(c3)C(=O)CCO4)CC2)ccc1Br.O=S(=O)(O)c1ccccc1 [DSP-1053, 6-(2-{4-[4-Bromo-3-(2-methoxyethoxy)benzyl]piperidin-1-yl}ethyl)-2,3-dihydro-4H-chromen-4-one benzenesulfonate]?
Answer: inhibition at 1 µM (Human adrenergic β3): 19%; inhibition at 1 µM (Human opiate κ): 0%; number of line crosses [1, 16]: reduced; also recorded: significant decrease; number of line crosses [1, 17]: no effect; inhibition at 1 µM (Human dopamine D1): 4%; inhibition at 1 µM (Human serotonin 5-HT2A): 35%; inhibition at 1 µM (Human serotonin 5-HT1B): 47%; inhibition at 1 µM (Human serotonin 5-HT5A): 2%; inhibition at 1 µM [2]: 5.28%; Number of animals vomited/tested (Suncus murinus [3]; 10 mg kg^−1 po): 0 and 0/6; Number of animals vomited/tested (Suncus murinus [3]; 30 mg kg^−1 po): 1 and 1/6; Total emetic episode (Suncus murinus [3]; 30 mg kg^−1 po): 2; Number of animals vomited/tested (Suncus murinus [3]; 60 mg kg^−1 po): 3 and 3/6; Total emetic episode (Suncus murinus [3]; 60 mg kg^−1 po, mean ± SEM): 5.3 ± 1.0; inhibition at 1 µM (Human dopamine D2L): 35%; Ki (Human serotonin 5-HT7): 288 ± 35 nM; inhibition at 1 µM (Human serotonin 5-HT7; [18]): 73%; inhibition at 1 µM (Human opiate μ): 2%; inhibition at 1 µM (Human serotonin 5-HT3): 0%; inhibition at 1 µM (Human adrenergic α2B): 6%; Ki (Human dopamine D3): 249 ± 21 nM; inhibition at 1 µM (Human dopamine D3; [18]): 65%; inhibition at 1 µM [4]: 26%; inhibition at 1 µM (Human adrenergic α1B): 1%; inhibition at 1 µM (Human adrenergic β1): 14%; clearance ([5]; iv, 1 mg/kg): 57.6 mL/min/kg; Tmax ([5]; po, 10 mg/kg): ≤ 1 h; inhibition at 1 µM (Human adrenergic α2A): 26%; inhibition at 1 µM (Human histamine H2): 37%; inhibition at 1 µM [6]: 0.19%; saccharin consumption (rats [7]): significantly inhibited; maximum increase of 5-HT extracellular levels, % of baseline value ([8]; 3 mg kg^−1 p.o.): 180 ± 25.9%; maximum increase of 5-HT extracellular levels, % of baseline value ([8]; 10 mg kg^−1 p.o.): 264 ± 58.0%; extracellular 5-HT levels ([8]; given once at 3 and 10 mg kg^−1): dose-dependently increased; inhibition at 1 µM (Human adrenergic α2C): 41%; inhibition at 1 µM (Human serotonin 5-HT2C): 20%; Ki (Human adrenergic α1A): 528 ± 45 nM; inhibition at 1 µM (Human adrenergic α1A; [18]): 57%; inhibition at 1 µM (Human adrenergic β2): 22%; inhibition at 1 µM [9]: 0%; Ki (Human histamine H1): 7.46 ± 0.2 nM; inhibition at 1 µM (Human histamine H1; [18]): 93%; number of animals that showed emesis on the first day, of 19 animals (Suncus murinus [10]): 9; emotional scores [11, 16]: reduced; also recorded: significant decrease; emotional scores [11, 17]: no effect; inhibition at 1 µM (Human musucarinic M1): 9%; immobility time (rats [12]; 2-week consecutive administration, 1 mg kg^−1 p.o.): significantly decreased; immobility time (rats [12]; 2-week consecutive administration, 1 mg kg^−1 p.o., listed as DSR-1053): significantly reduced; Percentage inhibition at 1 μmol/L (Rat GABAA): 8%; dopamine extracellular levels in the rat frontal cortex [13]: did not affect; inhibition at 1 µM (Human musucarinic M2): 21%; inhibition at 1 µM (Human serotonin 5-HT6): 14%; Ki (Human serotonin 5-HT2B): 117 ± 28 nM; inhibition at 1 µM (Human serotonin 5-HT2B; [18]): 79%; Ki [14]: 0.489 ± 0.039 nM; inhibition at 1 µM (Human opiate δ): 10%

Question: Which “number of line crosses” value [1, 19] does the source give for Fc1ccc([C@@H]2CCNC[C@H]2COc2ccc3c(c2)OCO3)cc1 [Paroxetine, paroxetine hydrochloride, reference compound] here?
Answer: The value was “did not alter”.

Question: What about the “number of line crosses” value ([1]; olfactory bulbectomized animals, 10 mg/kg, 2-week administration) of the same compound?
Answer: Its value is “significant decrease”.

Question: And the “number of line crosses” value [1, 20]?
Answer: The value was “no effect”.

Question: What about the “Number of animals vomited/tested” value (Suncus murinus [15]; 10 mg kg^−1 po) of the same compound?
Answer: Its value is 0/6.

Question: And the “Number of animals vomited/tested” value (Suncus murinus [15]; 10 mg kg^−1 po, listed as paroxetine)?
Answer: The value was 0.

Question: And the “Number of animals vomited/tested” value (Suncus murinus [15]; 30 mg kg^−1 po)?
Answer: Its value is 2/6.

Question: And the “Number of animals vomited/tested” value (Suncus murinus [15]; 30 mg kg^−1 po, listed as paroxetine)?
Answer: Its value is 2.

Question: And the Total emetic episode (Suncus murinus [15]; 30 mg kg^−1 po, 1 h observation, animals that vomited)?
Answer: The Total emetic episode was 6.8.

Question: What about the “Number of animals vomited/tested” value (Suncus murinus [15]; 60 mg kg^−1 po) of the same compound?
Answer: Its value is 6/6 ^*.

Question: What about the “Number of animals vomited/tested” value (Suncus murinus [15]; 60 mg kg^−1 po, listed as paroxetine) of the same compound?
Answer: The value was 6.

Question: And the “number of animals that showed emesis on the first day, of 19 animals” value (Suncus murinus [10])?
Answer: The value was 12.

Question: What about the emotional scores [11, 19] of the same compound?
Answer: The emotional scores was “did not alter”.

Question: And the emotional scores ([11]; olfactory bulbectomized animals, 3 and 10 mg/kg, 2-week administration)?
Answer: The emotional scores was “significant decrease”.

Question: And the emotional scores [11, 20]?
Answer: Its emotional scores is “no effect”.

Question: And the immobility time (rats [12]; 2-week administration)?
Answer: Its immobility time is “no effect”.

Question: What about the immobility time (rats [12]; 3-week administration, 3 and 10 mg kg^−1 p.o.) of the same compound?
Answer: Its immobility time is “reduced immobility time”.

Question: With CC(C)NCC(O)COc1cccc2[nH]ccc12 (stereo not shown) [Pindolol, pindolol] as the compound, how does the Emax (human 5-HT1A receptor) read?
Answer: The Emax was 13.3 ± 3.8%.
